Assay results as given in ChEMBL document CHEMBL4342498, “Design and Discovery of an Orally Efficacious Spiroindolinone-Based Tankyrase Inhibitor for the Treatment of Colon Cancer” (J Med Chem, 2020).
Calls of active or inactive are those of the source. The rule behind the calls is not given here.

Legend:
[1] = target: Tankyrase 1/2 (Homo sapiens) (UniProt Q9H2K2+O95271); experiment: Inhibition of TNKS/TNKS2-mediated WNT/beta-catenin signaling pathway in human COLO320DM cells assessed as upregulation of AXIN2 expression at 0.1 uM measured after 16 hrs by Western blot analysis relative to control; type: cell-based
Tankyrase 1/2 (Homo sapiens), sequence (O95271 whole entry, looked up): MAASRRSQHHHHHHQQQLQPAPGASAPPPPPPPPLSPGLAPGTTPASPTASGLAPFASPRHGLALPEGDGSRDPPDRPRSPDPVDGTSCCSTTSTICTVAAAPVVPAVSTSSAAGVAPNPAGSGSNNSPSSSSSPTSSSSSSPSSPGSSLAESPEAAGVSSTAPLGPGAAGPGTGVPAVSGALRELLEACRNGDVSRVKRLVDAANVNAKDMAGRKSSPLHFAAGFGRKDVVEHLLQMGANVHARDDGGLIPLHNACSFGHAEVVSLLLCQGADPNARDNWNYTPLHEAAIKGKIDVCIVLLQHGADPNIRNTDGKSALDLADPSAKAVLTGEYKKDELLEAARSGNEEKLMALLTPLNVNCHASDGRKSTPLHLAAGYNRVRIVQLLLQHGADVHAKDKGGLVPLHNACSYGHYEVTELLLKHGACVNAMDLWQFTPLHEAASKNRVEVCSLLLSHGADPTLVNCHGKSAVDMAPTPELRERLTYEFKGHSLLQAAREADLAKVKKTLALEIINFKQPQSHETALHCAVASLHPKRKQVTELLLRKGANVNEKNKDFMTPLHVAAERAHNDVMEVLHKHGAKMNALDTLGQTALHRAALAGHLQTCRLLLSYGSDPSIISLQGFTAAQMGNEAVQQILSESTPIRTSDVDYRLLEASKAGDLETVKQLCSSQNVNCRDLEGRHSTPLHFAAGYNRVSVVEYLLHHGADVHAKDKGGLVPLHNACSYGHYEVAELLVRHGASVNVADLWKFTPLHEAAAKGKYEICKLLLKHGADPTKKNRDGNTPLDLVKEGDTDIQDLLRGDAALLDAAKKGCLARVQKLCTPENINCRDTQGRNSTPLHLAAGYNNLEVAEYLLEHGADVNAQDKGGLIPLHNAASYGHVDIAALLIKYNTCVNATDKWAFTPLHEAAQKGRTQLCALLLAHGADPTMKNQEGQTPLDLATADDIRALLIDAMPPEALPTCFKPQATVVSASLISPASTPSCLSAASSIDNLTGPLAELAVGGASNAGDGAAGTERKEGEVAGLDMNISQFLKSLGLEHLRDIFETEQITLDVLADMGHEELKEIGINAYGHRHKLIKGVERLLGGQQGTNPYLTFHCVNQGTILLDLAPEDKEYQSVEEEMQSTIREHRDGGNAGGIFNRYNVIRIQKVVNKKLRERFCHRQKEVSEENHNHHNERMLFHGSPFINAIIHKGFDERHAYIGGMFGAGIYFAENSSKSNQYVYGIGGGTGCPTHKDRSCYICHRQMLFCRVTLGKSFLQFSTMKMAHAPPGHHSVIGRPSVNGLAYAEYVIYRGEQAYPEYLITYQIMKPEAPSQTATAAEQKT
Tankyrase 1/2 (Homo sapiens), sequence (Q9H2K2 whole entry, looked up): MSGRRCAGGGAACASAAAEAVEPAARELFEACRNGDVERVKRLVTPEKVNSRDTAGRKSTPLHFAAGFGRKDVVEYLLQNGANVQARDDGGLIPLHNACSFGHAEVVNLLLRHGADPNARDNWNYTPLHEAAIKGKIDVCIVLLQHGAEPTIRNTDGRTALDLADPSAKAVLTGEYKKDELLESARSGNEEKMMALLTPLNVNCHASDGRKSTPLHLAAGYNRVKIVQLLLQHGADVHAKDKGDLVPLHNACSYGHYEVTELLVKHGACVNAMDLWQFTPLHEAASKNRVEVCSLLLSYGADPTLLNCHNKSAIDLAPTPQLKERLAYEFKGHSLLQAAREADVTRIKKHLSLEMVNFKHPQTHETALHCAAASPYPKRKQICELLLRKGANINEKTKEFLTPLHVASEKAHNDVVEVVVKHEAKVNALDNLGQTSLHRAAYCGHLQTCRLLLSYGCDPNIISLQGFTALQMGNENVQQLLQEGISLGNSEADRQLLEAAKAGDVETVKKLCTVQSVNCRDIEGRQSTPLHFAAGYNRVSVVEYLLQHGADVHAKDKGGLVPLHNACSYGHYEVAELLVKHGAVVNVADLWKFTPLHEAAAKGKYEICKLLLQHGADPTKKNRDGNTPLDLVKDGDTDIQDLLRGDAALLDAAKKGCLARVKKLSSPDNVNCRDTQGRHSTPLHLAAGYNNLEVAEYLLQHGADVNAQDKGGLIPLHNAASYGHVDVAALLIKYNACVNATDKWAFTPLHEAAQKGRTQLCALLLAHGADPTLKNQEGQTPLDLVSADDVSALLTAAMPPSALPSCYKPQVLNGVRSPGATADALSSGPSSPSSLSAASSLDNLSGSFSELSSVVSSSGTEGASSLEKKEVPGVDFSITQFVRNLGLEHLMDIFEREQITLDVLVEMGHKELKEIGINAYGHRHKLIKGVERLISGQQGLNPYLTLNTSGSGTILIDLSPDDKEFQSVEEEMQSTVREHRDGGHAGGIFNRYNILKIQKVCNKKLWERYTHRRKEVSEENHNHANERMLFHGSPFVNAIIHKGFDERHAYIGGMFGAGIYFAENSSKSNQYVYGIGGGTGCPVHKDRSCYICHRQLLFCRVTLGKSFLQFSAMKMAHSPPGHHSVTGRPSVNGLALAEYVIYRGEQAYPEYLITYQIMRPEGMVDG

[2] = Half life in Sprague-Dawley rat at 3 mg/kg, iv; type: ADME, organism-based; settings: in vivo
[3] = AUC (infinity) in ICR mouse at 20 mg/kg, ip; type: ADME, organism-based; set-up: dose 20 mg/kg, route intraperitoneal, time infinity; settings: in vivo
[4] = AUC (infinity) in Sprague-Dawley rat at 3 mg/kg, po; type: ADME, organism-based; set-up: dose 3 mg/kg, time infinity, route oral; settings: in vivo
COLO 320DM [5] = experiment: Antitumor activity against human COLO320DM cells xenografted in Prkdc-NOD-SCID CB17 mouse assessed as tumor growth inhibition at 20 mg/kg, ip administered twice daily for 5 days followed by 2 days interval for 2 cycles relative to control; type: functional; settings: read-out: TGI
COLO 320DM [6] = experiment: Antitumor activity against human COLO320DM cells xenografted in Prkdc-NOD-SCID CB17 mouse assessed as tumor growth inhibition at 10 mg/kg, ip administered twice daily for 5 days followed by 2 days interval for 2 cycles relative to control; type: functional; settings: read-out: TGI
[7] = Toxicity in human COLO320DM cells xenografted Prkdc-NOD-SCID CB17 mouse assessed as reduction in crypt proliferation at 50 mg/kg, ip administered twice daily for 5 days followed by 2 days interval for 2 cycles; settings: in vivo
[8] = Toxicity in human COLO320DM cells xenografted Prkdc-NOD-SCID CB17 mouse assessed as loss of body weight at 50 mg/kg, ip administered twice daily for 5 days followed by 2 days interval for 2 cycles; settings: in vivo
COLO 320DM [9] = experiment: Antitumor activity against human COLO320DM cells xenografted in Prkdc-NOD-SCID CB17 mouse assessed as tumor growth inhibition at 20 mg/kg, po administered twice daily for 5 days followed by 2 days interval for 2 cycles relative to control; type: functional; settings: read-out: TGI
Mus musculus [10] = experiment: (§1) In vivo inhibition of TNSK/TNSK2-medited WNT/beta-catenin signaling in human COLO320DM cells xenografted Prkdc-NOD-SCID CB17 mouse assessed as upregulation of AXIN2 expression in tumor cytosolic extract at 10 to 20 mg/kg, po administered twice daily for 5 days followed by 2 days interval for 2 cycles measured 4 hrs post-last dose by Western blot analysis; type: functional, organism-based
[11] = Plasma concentration in human COLO320DM cells xenografted Prkdc-NOD-SCID CB17 mouse at 10 mg/kg, po administered twice daily for 5 days followed by 2 days interval for 2 cycles measured 4 hrs post-last dose; type: ADME, organism-based
[12] = Toxicity in human COLO320DM cells xenografted Prkdc-NOD-SCID CB17 mouse assessed as reduction in appetite at 50 mg/kg, ip administered twice daily for 5 days followed by 2 days interval for 2 cycles; settings: in vivo
[13] = Dose normalized AUC (infinity) in Sprague-Dawley rat at 1 mg/kg, iv; type: ADME, organism-based; settings: in vivo
[14] = target: Poly [ADP-ribose] polymerase 2 (Homo sapiens, UniProt Q9UGN5); experiment: Inhibition of human recombinant N-terminal GST-tagged PARP2 (2 to 583 residues) expressed in baculovirus infected Sf9 cells assessed as reduction in auto-PARylation using histone as substrate measured after 45 mins in presence of biotinylated-NAD+ by ELISA
Poly [ADP-ribose] polymerase 2, sequence (Q9UGN5 whole entry, the tested form may be a part): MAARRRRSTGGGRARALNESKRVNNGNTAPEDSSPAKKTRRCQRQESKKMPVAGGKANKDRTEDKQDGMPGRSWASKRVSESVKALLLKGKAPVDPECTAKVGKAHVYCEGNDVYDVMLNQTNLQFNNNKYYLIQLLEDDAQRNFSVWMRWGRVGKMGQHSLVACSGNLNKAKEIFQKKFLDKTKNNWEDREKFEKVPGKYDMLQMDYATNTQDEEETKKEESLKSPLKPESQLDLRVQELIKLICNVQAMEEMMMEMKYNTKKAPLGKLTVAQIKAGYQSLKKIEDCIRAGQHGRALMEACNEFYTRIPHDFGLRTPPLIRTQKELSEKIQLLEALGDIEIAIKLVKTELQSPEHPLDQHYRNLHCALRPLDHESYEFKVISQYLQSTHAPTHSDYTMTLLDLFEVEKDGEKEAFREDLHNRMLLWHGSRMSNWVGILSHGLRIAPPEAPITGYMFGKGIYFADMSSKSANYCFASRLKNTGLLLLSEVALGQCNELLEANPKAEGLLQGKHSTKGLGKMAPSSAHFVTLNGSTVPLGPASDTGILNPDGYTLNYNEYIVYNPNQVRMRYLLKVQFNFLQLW

[15] = Half life in ICR mouse at 20 mg/kg, po; type: ADME, organism-based; settings: in vivo
Mus musculus [16] = experiment: as §1, with “mg/kg, ip” for “mg/kg, po”; type: functional, organism-based
Cytochrome P450 2B6 = target: T1, Cytochrome P450 2B6 (Homo sapiens, UniProt P20813); experiment: Inhibition of CYP2B6 in human liver microsomes using bupropion as substrate preincubated for 5 mins followed by NADPH addition and measured for 10 to 30 mins by LC-MS/MS analysis; type: ADME
T1 sequence (P20813 whole entry): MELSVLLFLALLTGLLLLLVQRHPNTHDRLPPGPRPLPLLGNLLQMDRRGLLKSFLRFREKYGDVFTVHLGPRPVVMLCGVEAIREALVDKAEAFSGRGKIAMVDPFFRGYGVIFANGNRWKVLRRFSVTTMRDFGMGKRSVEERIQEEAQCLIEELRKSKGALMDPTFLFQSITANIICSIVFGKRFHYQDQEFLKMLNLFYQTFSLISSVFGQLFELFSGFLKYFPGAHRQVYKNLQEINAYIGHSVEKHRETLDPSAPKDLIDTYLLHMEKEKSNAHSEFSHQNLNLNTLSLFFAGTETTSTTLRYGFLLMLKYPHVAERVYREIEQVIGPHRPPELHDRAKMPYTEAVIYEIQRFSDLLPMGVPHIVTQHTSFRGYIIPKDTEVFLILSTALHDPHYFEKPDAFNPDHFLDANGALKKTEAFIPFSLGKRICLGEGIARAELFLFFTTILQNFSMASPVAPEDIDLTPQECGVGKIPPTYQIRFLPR

[17] = Toxicity in human COLO320DM cells xenografted Prkdc-NOD-SCID CB17 mouse assessed as change in body weight at 10 to 20 mg/kg, ip administered twice daily for 5 days followed by 2 days interval for 2 cycles measured during compound dosing; type: organism-based; settings: in vivo
[18] = Volume of distribution at steady state in Sprague-Dawley rat at 3 mg/kg, iv; type: ADME, organism-based; settings: in vivo, read-out: Vdss
[19] = Toxicity in human COLO320DM cells xenografted Prkdc-NOD-SCID CB17 mouse assessed as epithelial degeneration at 50 mg/kg, ip administered twice daily for 5 days followed by 2 days interval for 2 cycles; settings: in vivo
RKO = experiment: Antiproliferative activity against human RKO cells assessed inhibition of cell growth measured after 5 days by MTT assay; type: functional; settings: 120 h
Cytochrome P450 2C19 = Cytochrome P450 2C19 (Homo sapiens, UniProt P33261); experiment: Inhibition of CYP2C19 in human liver microsomes using (S)-mephenytoin as substrate preincubated for 5 mins followed by NADPH addition and measured for 10 to 30 mins by LC-MS/MS analysis; type: ADME
Cytochrome P450 2C19, sequence (P33261 whole entry): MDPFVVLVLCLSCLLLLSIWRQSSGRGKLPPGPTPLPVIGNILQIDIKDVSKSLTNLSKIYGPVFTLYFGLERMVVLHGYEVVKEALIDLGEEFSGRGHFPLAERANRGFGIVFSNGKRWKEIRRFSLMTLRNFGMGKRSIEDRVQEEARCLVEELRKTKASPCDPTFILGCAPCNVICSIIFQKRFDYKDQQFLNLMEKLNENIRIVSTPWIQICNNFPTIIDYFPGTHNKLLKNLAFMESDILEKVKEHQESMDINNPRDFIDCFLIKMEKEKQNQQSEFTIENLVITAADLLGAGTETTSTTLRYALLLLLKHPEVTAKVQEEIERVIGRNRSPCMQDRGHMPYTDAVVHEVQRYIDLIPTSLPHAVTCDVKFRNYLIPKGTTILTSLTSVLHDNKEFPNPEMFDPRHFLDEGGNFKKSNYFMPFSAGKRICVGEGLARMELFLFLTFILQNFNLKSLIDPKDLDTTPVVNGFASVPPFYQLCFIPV

Mus musculus [20] = experiment: as §1, with “as reduction in active-beta catenin” for “as upregulation of AXIN2”, “tumor nuclear” for “tumor cytosolic”, “mg/kg, ip” for “mg/kg, po”; type: functional, organism-based
[21] = Tmax in Sprague-Dawley rat at 3 mg/kg, po; type: ADME, organism-based; settings: in vivo

## C[C@@H]1CN(c2cc(F)c3c(c2)N(C)C(=O)C32CCN(c3nc4c(c(=O)[nH]3)CCCN4C)CC2)C[C@H](C)O1
[1]
  fold change (FC): 5.23
[2]
  half-life: 3.61 h
[3]
  AUC(0-inf): 266 µM·h
[4]
  AUC(0-inf): 33 µM·h
COLO 320DM [5]
  inhibition in vivo at 20 mg/kg: 71.1%
COLO 320DM [6]
  inhibition in vivo at 10 mg/kg: 68.8%
[7]
  Activity: Toxic
[8]
  Activity: Toxic
COLO 320DM [9]
  inhibition in vivo at 20 mg/kg: 52%
Mus musculus [10]
  inhibition: Active
[11]
  concentration at 4 h: 10.1 µM
[12]
  Activity: Toxic
[13]
  AUC/dose: 10.49 µmol·h/L
[14]
  IC50: 1.24 µM
[15]
  half-life: 1.7 h
Mus musculus [16]
  inhibition: Active
Cytochrome P450 2B6
  IC50: > 10 µM
[17]
  Activity: Non-Toxic
[18]
  Vd: 1.02 L/kg
[19]
  Activity: Toxic
RKO
  GI50: > 10 µM
Cytochrome P450 2C19
  IC50: > 10 µM
Mus musculus [20]
  inhibition: inactive
[21]
  Tmax: 0.33 h
